{"source": "patent US12558343B2", "about": "“Medical use of icaritin” (Lunan Pharmaceutical Group Corporation, priority 2020, dated 2026)", "key": {"[1]": {"test_system": "platelets (activation induced by adenosine diphosphate)", "assay": "Platelet activation induced by adenosine diphosphate, flow cytometry (CD62p/CD61), blood of dosed rats", "type": "in vivo, SD rats", "conditions": "for Activation rate of platelets activated by adenosine diphosphate, Basic value / Spontaneous activation rate: before administration; for Spontaneous activation rate: no adenosine diphosphate; for Activation-promoting rate: after vs basic value; for Activation rate of platelets activated by adenosine diphosphate, After administration: 20 min after last administration", "method": "0.5 mL of blood was collected from the orbit of the rat and 3.8% sodium citrate was added for anticoagulation (a ratio of blood to anticoagulant was 9:1) to prepare anticoagulated blood. 50 μL of anticoagulated blood was taken from each animal for determination of spontaneous platelet activation rate; and another 50 μL of anticoagulated blood was taken and 50 μL of adenosine diphosphate with a final concentration of 10 μmol was added for activation. 1.0-1.5 μL of each of CD62pPE/Cy7 and CD61PE was added to double-label the 2 anticoagulated blood, CD61 was used to label all the platelets and CD62p was used to label the activated platelets. […] The rats were double-labeled with G2a-PE/Cy7 and G-PE […] as a control. Each tube containing the treated blood was incubated at 4° C. in a dark place for 20 min; and 0.5 mL of 4% paraformaldehyde was added to fix for 10 min. 50 μL of the fixed blood sample was taken and diluted with 1 mL of a diluent, and the diluted sample was analyzed on a flow cytometer. Platelet populations were delineated in a CD61PE/Side Angle Light Scattering (SSC) two-parameter scatterplot, 5,000 platelets were counted, the number of CD61 and CD62p-positive cells was further counted in a CD61/CD62p scatterplot, and a percentage of a positive expression rate of CD62p in an expression rate of CD61 reflected a platelet activation rate (%).\n(§1) Twenty-four rats were taken and divided into 3 groups with 8 rats in each group. […] 1.0 mL of blood was collected from the orbits before administration and 20 min after a last administration, wherein 0.5 mL was used for a blood routine examination and 0.5 mL was used to prepare anticoagulated blood. The blood was treated and analyzed on the flow cytometer according to the detection method of platelet activation by flow cytometry. An activation rate of platelets activated by adenosine diphosphate (basic value) before administration and an activation rate of platelets activated by adenosine diphosphate after administration were compared. At the same time, 50 μL of anticoagulated blood was taken from the rats before administration, adenosine diphosphate was not added, and a spontaneous activation rate of the anticoagulated blood of animals was measured using the same method. The animals were fasted for 16-24 h before each blood sampling."}, "[2]": {"assay": "Blood routine examination of rats before/after icaritin (Efficacy Example 1)", "type": "in vivo, SD rats", "method": "as §1"}, "[3]": {"test_system": "platelet aggregation induced by adenosine diphosphate", "assay": "In-vitro platelet aggregation in platelet-rich plasma induced by adenosine diphosphate", "type": "cell-based, domestic rabbits", "conditions": "rabbit PRP, ADP 25 μmol/L, vs 1% dimethyl sulfoxide control", "method": "After domestic rabbits were locally anesthetized with procaine, common carotid artery was surgically separated, blood was collected and anticoagulated with 3.8% sodium citrate, the anticoagulated blood was centrifuged at 800 r/min for 10 min to prepare platelet-rich plasma (PRP), the remaining part was centrifuged at […] for 10 min to prepare platelet-poor plasma (PPP), and a platelet aggregation experiment was performed. 265 μL of PRP and 30 μL of icaritin were added to a test tube (to enable final concentrations of the icaritin to be 0.1 mmol/L, 0.5 mmol/L, and 5 mmol/L separately), incubation was performed for 5 min, 5 μL of adenosine diphosphate (at a final concentration of 25 μmol/L) was added as an inducer, and a maximum aggregation rate within 5 min was observed and recorded. 1% by mass of dimethyl sulfoxide was used as a control and a promoting effect of the icaritin of each concentration on platelet aggregation induced by adenosine diphosphate was observed."}, "[4]": {"test_system": "prolonged bleeding time caused by heparin sodium", "assay": "Tail-cut bleeding time in mice, prolonged by heparin sodium", "type": "in vivo, ICR mice", "conditions": "heparin sodium 150 U/kg i.v.", "description": "72 ICR mice aged 5-6 weeks, weighing 19-21 g, and half male and half female were selected. The mice were quarantined for 7 days after entering a laboratory and healthy mice were selected as test animals. The mice were weighed on first and last days of quarantine. According to the body weight on the last day of the quarantine, the male and female animals were divided into six groups by a simplified random method, namely, a normal group (C), a model group (V), low-, medium- and high-dose icaritin groups (2, 6, and 18 mg/kg, L, M, H) and a positive control drug group (200 mg/kg of etamsylate, P).\nAfter 15 min of the modeling, the tails of the mice were cut and bleeding time of each mouse was measured."}, "[5]": {"test_system": "gastrointestinal bleeding caused by aspirin", "assay": "Gastrointestinal bleeding caused by aspirin in rats, gastric mucosal bleeding", "type": "in vivo, SD rats", "conditions": "icaritin 18 mg/kg i.g. with aspirin 500 mg/kg i.g., 24 h", "method": "After 24 h of the intragastric administration, the rats were anesthetized, sacrificed, and dissected. Bleeding, erosion and ulcers of the gastric mucosa surface of the rats were observed."}, "[6]": {"conditions": "mouse, in vivo", "protocol": "After the grouping, the mice in the normal group and the model group were intragastrically administrated with 10 ml/kg of an icaritin solvent which was prepared by adding 12 g of hypromellose E5 and 0.1 g of sodium lauryl sulfate into 1 L of water. […] One hour after the last pre-administration, the mice in the model group and each administration group were injected with 150 U/kg of a heparin sodium injection through a tail vein to establish a model, and the mice in the normal group were injected with 10 ml/kg of a sodium chloride injection through a tail vein.\nAfter the bleeding time was detected, the mice were anesthetized with sodium pentobarbital, blood was collected from an abdominal cardinal vein, and indicators of blood routine examination and four coagulation indicators (prothrombin time, thromboplastin time, thrombin time, and fibrinogen) were detected."}}, "note": "Read-outs that look alike come from different tables or passages of the source. Marks after values point to notes of the source that are not given here."}
{"smiles": "COc1ccc(-c2oc3c(CC=C(C)C)c(O)cc(O)c3c(=O)c2O)cc1", "note": "[Icaritin]", "values": [{"measurement": "Activation rate of platelets activated by adenosine diphosphate, Basic value", "setting": "[1]; 3 mg/kg group", "value": "44.02 ± 11.21", "unit": "%"}, {"measurement": "Spontaneous activation rate", "setting": "[1]; 3 mg/kg group", "value": "0.60 ± 0.11", "unit": "%"}, {"measurement": "Activation-promoting rate", "setting": "[1]; 3 mg/kg i.g. 3 days", "value": 32.12, "unit": "%"}, {"measurement": "Activation rate of platelets activated by adenosine diphosphate, After administration", "setting": "[1]; 3 mg/kg i.g. once a day 3 days", "value": "58.16 ± 13.41", "unit": "%"}, {"measurement": "Activation rate of platelets activated by adenosine diphosphate, Basic value", "setting": "[1]; 6 mg/kg group", "value": "47.19 ± 13.12", "unit": "%"}, {"measurement": "Spontaneous activation rate", "setting": "[1]; 6 mg/kg group", "value": "0.59 ± 0.20", "unit": "%"}, {"measurement": "Activation-promoting rate", "setting": "[1]; 6 mg/kg i.g. 3 days", "value": 38.22, "unit": "%"}, {"measurement": "Activation rate of platelets activated by adenosine diphosphate, After administration", "setting": "[1]; 6 mg/kg i.g. once a day 3 days", "value": "65.23 ± 16.78", "unit": "%"}, {"measurement": "Activation rate of platelets activated by adenosine diphosphate, Basic value", "setting": "[1]; 18 mg/kg group", "value": "50.34 ± 19.22", "unit": "%"}, {"measurement": "Spontaneous activation rate", "setting": "[1]; 18 mg/kg group", "value": "0.61 ± 0.14", "unit": "%"}, {"measurement": "Activation-promoting rate", "setting": "[1]; 18 mg/kg i.g. 3 days", "value": 55.84, "unit": "%"}, {"measurement": "Activation rate of platelets activated by adenosine diphosphate, After administration", "setting": "[1]; 18 mg/kg i.g. once a day 3 days", "value": "78.45 ± 20.22", "unit": "%"}, {"measurement": "Concentration of hemoglobin", "setting": "[2]; 3 mg/kg i.g. 3 days", "value": "180500 ± 11200", "unit": "µg/mL"}, {"measurement": "Number of erythrocytes", "setting": "[2]; 3 mg/kg i.g. 3 days", "value": "7.213 ± 0.554 10^12/L"}, {"measurement": "Number of leukocytes", "setting": "[2]; 3 mg/kg i.g. 3 days", "value": "1.832 ± 0.154 10^9/L"}, {"measurement": "Number of platelets", "setting": "[2]; 3 mg/kg i.g. 3 days", "value": "1124 ± 209 10^9/L"}, {"measurement": "Concentration of hemoglobin", "setting": "[2]; 6 mg/kg i.g. 3 days", "value": "179000 ± 9200", "unit": "µg/mL"}, {"measurement": "Number of erythrocytes", "setting": "[2]; 6 mg/kg i.g. 3 days", "value": "6.783 ± 0.871 10^12/L"}, {"measurement": "Number of leukocytes", "setting": "[2]; 6 mg/kg i.g. 3 days", "value": "1.653 ± 0.421 10^9/L"}, {"measurement": "Number of platelets", "setting": "[2]; 6 mg/kg i.g. 3 days", "value": "1397 ± 143 10^9/L"}, {"measurement": "Concentration of hemoglobin", "setting": "[2]; 18 mg/kg i.g. 3 days", "value": "181600 ± 9500", "unit": "µg/mL"}, {"measurement": "Number of erythrocytes", "setting": "[2]; 18 mg/kg i.g. 3 days", "value": "7.235 ± 0.656 10^12/L"}, {"measurement": "Number of leukocytes", "setting": "[2]; 18 mg/kg i.g. 3 days", "value": "1.761 ± 0.335 10^9/L"}, {"measurement": "Number of platelets", "setting": "[2]; 18 mg/kg i.g. 3 days", "value": "1249 ± 166 10^9/L"}, {"measurement": "Aggregation-promoting rate", "setting": "[3]; 0.1 mmol/L", "value": "23.3 ± 4.5", "unit": "%"}, {"measurement": "Aggregation-promoting rate", "setting": "[3]; 0.5 mmol/L", "value": "38.9 ± 8.7", "unit": "%"}, {"measurement": "Aggregation-promoting rate", "setting": "[3]; 5 mmol/L", "value": "52.2 ± 9.0", "unit": "%"}, {"measurement": "Bleeding time", "setting": "[4]; group H, 18 mg/kg i.g. once a day 5 days", "value": "15.9 ± 6.6^$ $ & min"}, {"measurement": "Bleeding time", "setting": "[4]; group L, 2 mg/kg i.g. once a day 5 days, tail cut 15 min after modeling", "value": "26.4 ± 8.8^$ min"}, {"measurement": "Bleeding time", "setting": "[4]; group M, 6 mg/kg i.g. once a day 5 days", "value": "22.7 ± 9.1^$ min"}, {"measurement": "Bleeding rate", "setting": "[5]; model group 66.7", "value": "16.7^## %"}, {"measurement": "Number of bleeding animals", "setting": "[5]; of 12 rats", "value": 2}, {"measurement": "Number of erythrocytes", "setting": "[6]; 2 mg/kg", "value": "7.109 ± 0.656 10^12/L"}, {"measurement": "Number of leukocytes", "setting": "[6]; 2 mg/kg", "value": "1.895 ± 0.207 10^9/L"}, {"measurement": "Number of platelets", "setting": "[6]; 2 mg/kg", "value": "1046 ± 136 10^9/L"}, {"measurement": "Number of erythrocytes", "setting": "[6]; 6 mg/kg", "value": "7.111 ± 0.634 10^12/L"}, {"measurement": "Number of leukocytes", "setting": "[6]; 6 mg/kg", "value": "1.934 ± 0.199 10^9/L"}, {"measurement": "Number of platelets", "setting": "[6]; 6 mg/kg", "value": "1110 ± 128 10^9/L"}, {"measurement": "Number of erythrocytes", "setting": "[6]; 18 mg/kg", "value": "7.090 ± 0.761 10^12/L"}, {"measurement": "Number of leukocytes", "setting": "[6]; 18 mg/kg", "value": "1.888 ± 0.223 10^9/L"}, {"measurement": "Number of platelets", "setting": "[6]; 18 mg/kg", "value": "1059 ± 170 10^9/L"}]}
